Results reported in patent publication US6124323A, “4-substituted piperidine analogs and their use as subtype selective NMDA receptor antagonists” (Warner-Lambert Company, priority 1998, dated 2000).
Counter-ions that a name gives are not always drawn.

Columns and labels:
[1] = test system: Parkinson's disease; settings: at plasma levels leading to NMDA receptor antagonism; cited from earlier work
[2] = test system: d-amphetamine induced stimulation; settings: injected into rat nucleus accumbens or striatum; cited from earlier work
[3] = biological target: T1, NMDA receptor subunits 1A/2C (Rattus norvegicus, UniProt P35439+Q00961); experiment: Electrophysiological assay at NMDA receptor subunits expressed in Xenopus oocytes, 1A/2C; assay type: cell-based; settings: Xenopus oocytes; glutamate 100 μm and glycine 1-100 μm; read-out: Subunits IC50, 1A/2C
T1 construct: expressed in transfected cells; host or cells: Xenopus laevis oocytes (cRNA injection; clones from Dr. P. H. Seeburg)
Procedure, shortened: (§1)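 Two-electrode voltage clamp of Xenopus oocytes injected with rat NR1A plus NR2A, 2B or 2C cRNA (1:1), recorded 3–21 days post-injection in Ringer's, pH 7.4. Currents evoked by glutamate (100 μm) with glycine (1–100 μm); antagonist applied by bath perfusion at rising concentrations, IC50 from logistic fit or linear regression for incomplete curves.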

[4] = biological target: T2, NMDA receptor subunits 1A/2A (Rattus norvegicus, UniProt P35439+Q00959); experiment: Electrophysiological assay at NMDA receptor subunits expressed in Xenopus oocytes, 1A/2A; assay type: cell-based; settings: glutamate 100 μm and glycine 1-100 μm
T2 construct: expressed in transfected cells; host or cells: Xenopus laevis oocytes (cRNA injection; clones from Dr. P. H. Seeburg)
Procedure, shortened: as §1

[5] = biological target: T3, NMDA receptor subunits 1A/2B (Rattus norvegicus, UniProt P35439+Q00960); experiment: Electrophysiological assay at NMDA receptor subunits expressed in Xenopus oocytes, 1A/2B; assay type: cell-based; settings: Xenopus oocytes; glutamate 100 μm and glycine 1-100 μm; read-out: Subunits IC50, 1A/2B
T3 construct: expressed in transfected cells; host or cells: Xenopus laevis oocytes (cRNA injection; clones from Dr. P. H. Seeburg)
Procedure, shortened: as §1

[6] = test system: focal ischemia (MCA occlusion); experiment: Induction of focal ischemia (MCA occlusion), infarct volume; assay type: in vivo, rats; settings: for Mean Infarct Volume: mean ± S.E.M.
Protocol: Induction of Focal Ischemia
Rats were intubated and maintained under anesthesia with 2% of halothane. Body temperature was maintained at 37.5° C. during surgery by means of a warming pad and a rectal probe connected to the control unit. The common carotid arteries (CCA) were isolated, and a loose silk ligature was placed around each CCA. A vertical skin incision was made between the left orbit and the auditory canal. The posterior part of the zygoma was removed and a small opening (2.0-2.5 mm) was drilled dorsorostrally to the foramen ovale under constant saline irrigation. The dura was opened with a microsurgical hook and the brain gently retracted to expose the bifurcation of the internal carotid artery and the middle cerebral artery (MCA). The ipsilateral CCA was ligated and the MCA coagulated from its origin to the olfactory tract. The contralateral CCA was occluded with an arterial clip. All cuts were sutured and an i.v. line was connected to an infusion pump for delivery of the compound of the invention. Two hours after MCA occlusion, the clip on the contralateral CCA was removed. Rectal temperature was measured 2 hours after MCA occlusion (MCA-0).

[7] = test system: Maximal Electroshock-induced Seizures; experiment: Maximal electroshock-induced seizures (MES); assay type: in vivo; settings: Mus musculus; mice; 50 mA, 60 pulses/sec, 1 sec
Excerpt: Seizures were induced by application of current (50 mA, 60 pulses/sec, 0.8 sec pulse width, 1 sec duration, d.c.) through saline-coated corneal electrodes using a Ugo Basile ECT device (Model 7801). […] A tonic seizure was defined as a hindlimb extension in excess of 90 degrees from the plane of the body.

[8] = test system: PCP and MK801-induced behavioral arousal; settings: in vivo; cited from earlier work
[9] = test system: micturition; settings: rat; cited from earlier work
[10] = test system: anxiety; settings: in vivo; cited from earlier work

T3 sequence (Q00960 27-1482, other chains not shown): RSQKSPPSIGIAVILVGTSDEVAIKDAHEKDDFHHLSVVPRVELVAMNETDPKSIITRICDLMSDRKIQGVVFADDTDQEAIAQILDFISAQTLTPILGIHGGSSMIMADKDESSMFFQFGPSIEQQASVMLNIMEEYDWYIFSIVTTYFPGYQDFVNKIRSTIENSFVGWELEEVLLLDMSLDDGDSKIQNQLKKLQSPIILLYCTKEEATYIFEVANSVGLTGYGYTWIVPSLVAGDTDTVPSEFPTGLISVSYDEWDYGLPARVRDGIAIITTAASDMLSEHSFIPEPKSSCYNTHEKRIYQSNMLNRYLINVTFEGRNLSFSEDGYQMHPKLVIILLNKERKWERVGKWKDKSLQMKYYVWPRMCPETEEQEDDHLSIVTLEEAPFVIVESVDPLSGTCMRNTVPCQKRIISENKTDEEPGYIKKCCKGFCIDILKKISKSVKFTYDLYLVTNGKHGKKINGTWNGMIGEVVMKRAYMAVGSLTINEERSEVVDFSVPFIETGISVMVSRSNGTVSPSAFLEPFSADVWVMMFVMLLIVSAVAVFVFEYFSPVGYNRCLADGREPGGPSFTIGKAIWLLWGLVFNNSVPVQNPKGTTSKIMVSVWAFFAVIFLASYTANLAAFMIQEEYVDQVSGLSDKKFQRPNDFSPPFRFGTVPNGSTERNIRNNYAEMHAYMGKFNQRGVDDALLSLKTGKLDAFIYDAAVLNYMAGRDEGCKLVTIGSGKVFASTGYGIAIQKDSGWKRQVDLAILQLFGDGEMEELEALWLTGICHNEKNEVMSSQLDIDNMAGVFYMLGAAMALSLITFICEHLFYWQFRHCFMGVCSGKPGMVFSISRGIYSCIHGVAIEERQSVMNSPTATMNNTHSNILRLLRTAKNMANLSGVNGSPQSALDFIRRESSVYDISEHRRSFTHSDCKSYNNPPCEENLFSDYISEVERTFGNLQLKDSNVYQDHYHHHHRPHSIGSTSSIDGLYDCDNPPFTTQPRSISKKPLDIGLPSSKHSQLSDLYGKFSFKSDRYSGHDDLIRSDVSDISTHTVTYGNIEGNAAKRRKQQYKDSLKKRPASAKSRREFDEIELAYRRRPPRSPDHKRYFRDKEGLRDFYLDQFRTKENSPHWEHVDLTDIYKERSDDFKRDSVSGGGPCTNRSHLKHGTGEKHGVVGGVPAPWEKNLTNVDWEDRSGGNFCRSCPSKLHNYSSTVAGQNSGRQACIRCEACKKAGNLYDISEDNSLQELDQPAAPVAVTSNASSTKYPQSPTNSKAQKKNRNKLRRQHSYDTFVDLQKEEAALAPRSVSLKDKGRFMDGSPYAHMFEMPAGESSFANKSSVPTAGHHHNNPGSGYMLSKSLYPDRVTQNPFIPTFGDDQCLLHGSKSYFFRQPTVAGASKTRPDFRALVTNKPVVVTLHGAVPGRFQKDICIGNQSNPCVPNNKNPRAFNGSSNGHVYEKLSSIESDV
T2 sequence (Q00959 20-1464 limits assumed, other chains not shown): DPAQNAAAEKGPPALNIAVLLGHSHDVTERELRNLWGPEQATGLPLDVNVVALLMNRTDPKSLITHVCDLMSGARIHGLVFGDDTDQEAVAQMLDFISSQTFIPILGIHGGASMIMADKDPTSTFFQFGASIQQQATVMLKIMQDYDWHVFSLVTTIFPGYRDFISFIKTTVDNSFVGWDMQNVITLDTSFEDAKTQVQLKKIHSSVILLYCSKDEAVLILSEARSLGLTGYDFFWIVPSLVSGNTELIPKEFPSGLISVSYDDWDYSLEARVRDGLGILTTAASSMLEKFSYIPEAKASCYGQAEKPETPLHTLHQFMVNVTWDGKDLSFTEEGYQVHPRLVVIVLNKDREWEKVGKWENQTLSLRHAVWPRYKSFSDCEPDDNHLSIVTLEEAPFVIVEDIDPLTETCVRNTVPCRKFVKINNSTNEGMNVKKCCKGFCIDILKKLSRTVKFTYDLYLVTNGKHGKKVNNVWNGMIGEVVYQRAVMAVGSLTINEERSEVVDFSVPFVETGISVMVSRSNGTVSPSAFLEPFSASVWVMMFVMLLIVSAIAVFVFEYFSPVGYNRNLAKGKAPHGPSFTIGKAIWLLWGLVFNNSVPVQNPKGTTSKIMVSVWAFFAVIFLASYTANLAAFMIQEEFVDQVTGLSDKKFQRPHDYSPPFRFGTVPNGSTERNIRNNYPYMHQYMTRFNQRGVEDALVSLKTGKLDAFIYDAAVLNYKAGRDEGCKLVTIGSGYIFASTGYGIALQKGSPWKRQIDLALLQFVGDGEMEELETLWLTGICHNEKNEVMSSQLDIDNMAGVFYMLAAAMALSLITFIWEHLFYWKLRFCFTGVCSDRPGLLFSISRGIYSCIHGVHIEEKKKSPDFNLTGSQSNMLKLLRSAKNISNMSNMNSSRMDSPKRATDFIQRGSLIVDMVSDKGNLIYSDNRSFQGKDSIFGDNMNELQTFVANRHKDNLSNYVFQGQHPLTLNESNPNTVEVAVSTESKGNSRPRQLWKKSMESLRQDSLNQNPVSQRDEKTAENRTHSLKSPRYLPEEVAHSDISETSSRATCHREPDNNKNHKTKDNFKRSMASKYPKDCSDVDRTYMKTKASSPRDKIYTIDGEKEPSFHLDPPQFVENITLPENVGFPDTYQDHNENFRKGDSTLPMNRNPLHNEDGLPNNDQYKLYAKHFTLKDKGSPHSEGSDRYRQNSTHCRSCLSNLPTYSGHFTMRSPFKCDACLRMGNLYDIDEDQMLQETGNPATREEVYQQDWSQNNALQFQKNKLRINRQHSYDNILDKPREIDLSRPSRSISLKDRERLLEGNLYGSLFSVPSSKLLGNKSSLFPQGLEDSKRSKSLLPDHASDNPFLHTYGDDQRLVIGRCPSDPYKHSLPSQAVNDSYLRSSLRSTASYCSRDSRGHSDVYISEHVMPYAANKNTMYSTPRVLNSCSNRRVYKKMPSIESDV
T1 sequence (Q00961 20-1237, other chains not shown): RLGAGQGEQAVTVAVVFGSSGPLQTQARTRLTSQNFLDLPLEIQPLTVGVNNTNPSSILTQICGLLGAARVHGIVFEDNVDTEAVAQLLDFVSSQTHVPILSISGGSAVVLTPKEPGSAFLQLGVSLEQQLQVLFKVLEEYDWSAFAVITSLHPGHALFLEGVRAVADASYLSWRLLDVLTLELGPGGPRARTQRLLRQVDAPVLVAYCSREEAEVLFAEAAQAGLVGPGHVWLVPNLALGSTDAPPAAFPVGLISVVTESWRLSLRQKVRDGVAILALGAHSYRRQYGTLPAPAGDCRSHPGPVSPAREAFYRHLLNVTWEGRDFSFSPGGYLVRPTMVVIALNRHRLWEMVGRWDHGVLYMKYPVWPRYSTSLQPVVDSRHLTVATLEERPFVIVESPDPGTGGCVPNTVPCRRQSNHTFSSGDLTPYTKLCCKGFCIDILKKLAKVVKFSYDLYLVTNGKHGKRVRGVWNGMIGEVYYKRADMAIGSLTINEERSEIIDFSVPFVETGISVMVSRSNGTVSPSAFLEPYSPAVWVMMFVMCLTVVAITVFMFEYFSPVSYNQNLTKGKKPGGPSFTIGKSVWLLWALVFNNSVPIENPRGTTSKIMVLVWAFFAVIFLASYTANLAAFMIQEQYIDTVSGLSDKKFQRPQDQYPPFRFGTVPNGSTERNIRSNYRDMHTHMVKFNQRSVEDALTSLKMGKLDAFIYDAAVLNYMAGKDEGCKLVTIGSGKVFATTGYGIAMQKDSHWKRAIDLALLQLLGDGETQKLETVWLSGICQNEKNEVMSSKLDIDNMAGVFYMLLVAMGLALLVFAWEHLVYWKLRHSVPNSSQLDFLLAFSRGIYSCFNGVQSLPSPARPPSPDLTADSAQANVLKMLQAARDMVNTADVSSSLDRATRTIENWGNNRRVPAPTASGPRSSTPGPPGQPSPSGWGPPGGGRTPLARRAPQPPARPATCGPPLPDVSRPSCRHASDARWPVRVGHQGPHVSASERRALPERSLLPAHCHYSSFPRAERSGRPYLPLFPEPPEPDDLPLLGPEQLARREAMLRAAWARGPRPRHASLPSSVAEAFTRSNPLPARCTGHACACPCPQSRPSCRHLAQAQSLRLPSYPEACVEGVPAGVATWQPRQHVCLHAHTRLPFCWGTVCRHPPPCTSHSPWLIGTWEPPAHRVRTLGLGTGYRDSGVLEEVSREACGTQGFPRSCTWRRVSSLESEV

Structure (SMILES)	IC50 [3] [µM]	IC50 [4] [µM]	IC50 [5] [µM]	ED50 [7] [mg/kg]	other results
CC12CC3CC(C)(C1)CC(N)(C3)C2 [memantine]					antiparkinsonian-like activity in animals [1]: showed antiparkinsonian-like activity in animals
NC12CC3CC(CC(C3)C1)C2 [amantadine]					antiparkinsonian-like activity in animals [1]: showed antiparkinsonian-like activity in animals
O=C(O)c1cc(O)c2c(Cl)cc(Cl)cc2n1 [5,7-dichlorokynurenic acid]					antagonism of d-amphetamine induced stimulation [2]: selectively antagonize d-amphetamine induced stimulation when injected into rat nucleus accumbens but not in striatum
c1ccc(CC2CCN(CCOc3ccccc3)CC2)cc1 [Ex. 1, 4-Benzyl-1-(2-phenoxyethyl)piperidine]	> 100	> 100	0.8	2	Mean Infarct Volume ([6]; Cortex, rats, 2.5 mg/Kg i.v. bolus then 1.75 mg/Kg for 22 hours, n = 12, vehicle 120.450 ± 20.166): 50.450 ± 11.428 mm^3; % of Ischemia Protection ([6]; Cortex, rats, 2.5 mg/Kg i.v. bolus then 1.75 mg/Kg for 22 hours, p = 0.0071): 58%; Mean Infarct Volume ([6]; Subcortex, rats, 2.5 mg/Kg i.v. bolus then 1.75 mg/Kg for 22 hours, n = 12, vehicle 74.462 ± 7.481): 67.400 ± 6.775 mm^3; % of Ischemia Protection ([6]; Subcortex, rats, 2.5 mg/Kg i.v. bolus then 1.75 mg/Kg for 22 hours, p = 0.4936): 9.5%; protection from ischemia ([6]; table 4 and FIG. 1, 2.5 mg/Kg i.v. bolus then 1.75 mg/Kg for 22 hours): significant protection from ischemia
N[C@@H]1CCN(O)C1=O [(+) HA-966]					block of PCP and MK801-induced behavioral arousal [8]: block PCP and MK801-induced behavioral arousal; antagonism of d-amphetamine induced stimulation [2]: selectively antagonize d-amphetamine induced stimulation when injected into rat nucleus accumbens but not in striatum
Fc1ccc(OCCN2CCC(Cc3ccc(Cl)cc3)CC2)cc1 [Ex. 25, 4-(4-Chlorobenzyl)-1-(2-(4-fluorophenoxy)ethyl)piperidine hydrobromide]	80	60	1	4	Mean Infarct Volume ([6]; Cortex, 10 mg/Kg i.v. bolus, n = 7, vehicle 114.936 ± 22.3): 41.857 ± 19.984 mm^3; % of Ischemia Protection ([6]; Cortex, 10 mg/Kg i.v. bolus, p = 0.0381): 64%; Mean Infarct Volume ([6]; Subcortex, 10 mg/Kg i.v. bolus, n = 7, vehicle 81.564 ± 5675): 43.343 ± 17.37 mm^3; % of Ischemia Protection ([6]; Subcortex, 10 mg/Kg i.v. bolus, p = .0320): 47%; protection from ischemia ([6]; Table 5 and FIG. 2, 10 mg/Kg i.v. bolus): significant protection from ischemia
Br.Br.Nc1ccc(OCCN2CCC(Cc3ccccc3)CC2)cc1 [Ex. 13, 1-(2-(4-Aminophenoxy)ethyl)-4-benzylpiperidine dihydrobromide]	> 100	90	1.3	6	
C[C@]12N[C@H](Cc3ccccc31)c1ccccc12 [MK801]					frequency of micturition [9]: increased the frequency of micturition in rat; effect in animal models of anxiety [10]: effective in a variety of animal models of anxiety
Clc1ccc(NC2CCN(CCCOc3ccccc3)CC2)cc1 [Ex. 40, 4-(N-(4-Chloroanilino)-1-(3-phenoxypropyl)piperidine hydrobromide]	100	80	3	2.5	
OC1(Cc2ccccc2)CCN(CCOc2ccccc2)CC1 [Ex. 47, 4-Benzyl-4-hydroxy-1-(2-phenoxyethyl)piperidine hydrochloride]	> 100	85	3	3.2	
Fc1cccc(OCCCN2CCC(Cc3ccc(Cl)cc3)CC2)c1 [Ex. 31, 4-(4-Chlorobenzyl)-1-(3-(3-fluorophenoxy)propyl)piperidine hydrobromide]	60	34	0.9	7.5	
O=C1Cc2cc(OCCN3CCC(Cc4ccccc4)CC3)ccc2N1 [Ex. 194, 4-Benzyl-1-(2-(2-oxo-1,3-dihydroindol-5-oxy)ethyl)piperidine]	> 300	> 300	0.06	2.5	
Cc1ccc(CC2CCN(CCOc3ccc(F)cc3)CC2)cc1 [Ex. 116, 1-(2-(4-Fluorophenoxy)ethyl)-4-(4-methylbenzyl)piperidine hydrochloride]	150	70	4.5	3	
COc1ccc(CC2CCN(CCOc3ccc(O)cc3)CC2)cc1 [Ex. 121, 1-[2-(4-Hydroxyphenoxy)ethyl]-4-(4-methoxybenzyl)piperidine hydrochloride]	> 300	110	0.05	2.5	
Cl.Oc1ccc(OCCN2CCC(Cc3ccccc3)CC2)cc1 [Ex. 99, 1-[2-(4-hydroxyphenoxy)ethyl]-4-benzylpiperidine hydrochloride]	> 300	> 300	0.03	2	
c1ccc(CC2CCN(CCCOc3ccccc3)CC2)cc1 [Ex. 2, 4-Benzyl-1-(3-phenoxypropyl)piperidine]	> 100	89	1.1	3	
Cl.Cl.Oc1ccc(OCCN2CCC(Cc3ccccn3)CC2)cc1 [Ex. 125, 1-(2-(4-Hydroxyphenoxy)ethyl)-4-(2-picolyl)piperidine dihydrochloride]	> 300	75	3.3	15	
Br.Br.Nc1ccc(OCCN2CCC(Cc3ccc(Cl)cc3)CC2)cc1 [Ex. 28, 1-(2-(4-Aminophenoxy)ethyl)-4-(4-chlorobenzyl)piperidine dihydrobromide]	> 100	38	0.4	5	
O=c1[nH]c2cc(OCCN3CCC(Cc4ccccc4)CC3)ccc2o1 [Ex. 181, 4-Benzyl-1-(2-(2-oxobenzoxazol-5-oxy)ethyl)piperidine]	140	110	1	6	
